The subject of test [1] is IEC-6 cells with T. gondii infection. Put plainly: NO level of T. gondii-infected IEC-6 cells (Griess). Type of test: cell-based. To be noted: Griess method, cell supernatant; compared with Toxo group. The method, then:
(§1) The Greiss method was used to determine the NO content in small intestine tissues and cells. The above small intestine tissue homogenate or IEC-6 cell supernatant was centrifuged at 4 °C and 1500 rpm for 15 min, and the absorbance was measured at 540 nm by adding equal amounts of Griess A and B reagents to the supernatant. The standard used in the NO standard curve was sodium nitrite, and the NO content in the samples was calculated by substituting the absorbance values of the samples into the regression equation of the standard curve.
(Nitrite, measured by Griess reagent, commonly stands in for NO production.)

Test [2] can be described thus: Small intestine function of T. gondii-infected mice (weight, food utilization, carmine excretion). In kind it is in vivo. The settings on record: 100 mg/kg oral once a day for 6 days. How it is done:
On the last day, heart blood samples were collected after anesthesia to separate the serum, and after mice were sacrificed by cervical dislocation, mice were dissected to obtain organs and tissues. The tachyzoites were harvested from mice peritoneal cavities to determine the level of tachyzoite proliferation. The peritoneal fluid was collected twice; the first time, it was centrifuged at 500 rpm for 10 min, then the supernatant was centrifuged at 2500 rpm for 20 min, discarded, and the worm precipitate was collected at the bottom, and mixed with an appropriate amount of physiological saline. […] Mouse food intake and body weight were recorded daily for six days during the experiment and were used to record growth performance data. At the end of the experiment, body weight gain, food intake and food utilization of mice were calculated as Equation (1). […] A solution containing 3% carmine dye and 0.5% carboxymethyl cellulose was prepared. On the fifth day of T. gondii infection, each mouse was transferred to a separate cage, with the bottom of the cage completely covered with white paper to facilitate the detection of cochineal in the feces after red feces were eliminated. […] During the experimental period, the mice were free to move around, and eat and drink freely without any external interference, as described.

For test [3], the system named is T. gondii. Put plainly: MTT anti-T. gondii activity in T. gondii-infected IEC-6 cells. To be noted: for IC50: MTT, concentration required to reduce T. gondii-infected IEC-6 cell growth by 50%, 24 h treatment, read-out: IC50 in T. gondii. In kind it is cell-based, Toxoplasma gondii. The method, then:
(§2) Anti-T. gondii activity and cytotoxicity of indole derivatives in vitro were evaluated by MTT assay (Solarbio, Beijing, China) using a slightly modified version of the procedure of Shang et al.. IEC-6 cells were seeded onto the 96-well plates (2 × 10^3/well) for 24 h to obtain the full monolayer, and then the host cells were infected with T. gondii (parasite: cell = 3:1) in complete medium. After 24 h, cells were washed to remove any extra parasites and then incubated with different concentrations (20, 200, 500 and 1000 μm) of […]. […] After 24 h of treatment, MTT solution was added directly to the culture wells and then incubated for 4 h at 37 °C. The optical absorbance was measured at a wavelength of 548 nm using a microplate reader (SpectraMax M2, Molecular Devices, Sunnyvale, CA, USA). Giemsa staining was used to observe the changes in cell morphology and the proliferation of T. gondii-infected cells. IEC-6 (1 × 10^5 cells/well) was inoculated into 24-well plates containing round coverslip, and after the cells were attached to the wall, T. gondii (3 × 10^5 cells/well) was added to infect the cells for 3 h. After the culture medium was discarded, PBS was added to remove the uninvaded tachyzoites. […] After discarding the supernatant, the cells were washed with PBS and completely aspirated, and then fixed by adding 0.5 mL of methanol for 3 min. Giemsa staining solution was added and shaken slightly to make the staining uniform. Coverslips were rinsed with distilled water to replace the staining solution, and finally, the slices were sealed with neutral gum and air-dried.

Test [4] in a line: Small intestine histology and pathology scoring of T. gondii-infected mice. In kind it is in vivo. To be noted: 100 mg/kg oral once a day for 6 days. An excerpt: (§3) For the in vivo study, KM female mice were divided into groups consisting of six animals each and then intraperitoneally injected with 2 × 10^3 tachyzoites. […] On the last day, heart blood samples were collected after anesthesia to separate the serum, and after mice were sacrificed by cervical dislocation, mice were dissected to obtain organs and tissues. The tachyzoites were harvested from mice peritoneal cavities to determine the level of tachyzoite proliferation. The peritoneal fluid was collected twice; the first time, it was centrifuged at 500 rpm for 10 min, then the supernatant was centrifuged at 2500 rpm for 20 min, discarded, and the worm precipitate was collected at the bottom, and mixed with an appropriate amount of physiological saline. A total of 10 μL of T. gondii suspension was mixed with 10 μL of 4% Trypan blue staining solution in a 1.5 mL centrifuge tube.
The histology research includes apparent pathological change score, H&E staining and histopathological scores of tissue, as shown in Table 4 and Table 5. In detail, the obtained small intestine tissues were fixed in formalin solution and embedded in paraffin wax after gradual dehydration with different concentrations of ethanol. The paraffin fast was sectioned to a thickness of 5 μm, rehydrated and stained with hematoxylin and eosin, respectively, and finally permeabilized with xylene and sealed with neutral gum. A light microscope was used to observe and collect pictures, and the degree of damage to the small intestinal tissues was assessed according to Chiu’s six-grade scale.

Test [5] relates to small intestine of mice with T. gondii infection. The test is described as follows: Small intestine and serum biochemical parameters (GSH, MDA, NO, DAO) of T. gondii-infected mice. In kind it is in vivo. To be noted: 100 mg/kg oral once a day for 6 days.
Text: as §3
The GSH was measured according to the method in [58]. The intestine homogenate was mixed with half volume trichloroacetic acid (20%, w/v) and centrifuged at 4000 rpm for 10 min. Then, phosphate buffer (phosphate 0.3 mol/L, pH 7.5) and 5,5-dithio-bis-(2-nitrobenzoic acid) (0.04%, w/v) were added to the separated supernatant and mixed thoroughly. After 5 min at room temperature, the absorbance was measured at 412 nm.
MDA was measured by the standard method with minor modifications. The small intestine homogenate supernatant was mixed with thiobarbituric acid (0.5%, w/v) and heated in boiling water bath for 1 h, then cooled quickly and centrifuged at 6000 rpm for 10 min; the absorbance of pink colored supernatant was measured at 532 nm. Tetraethoxypropane replaced the intestine homogenate in the standard sample.
as §1
The DAO evaluation experimental method of Xin Y et al. was adopted, in which mouse heart blood was taken from a 1.5 mL centrifuge tube and centrifuged at 4 °C and 3000× g for 10 min, and the upper layer of serum was taken for measurement. Another 1.5 mL tube was taken and 600 μL of phosphate buffer, 20 μL of horseradish peroxidase, 20 μL of dianisidine dihydrochloride hydrochloride, and 20 μL of 1,5-pentanediamine hydrochloride were added. After that, 100 μL of serum samples to be tested was added, mixed well and heated at 37 °C for 18 h. The absorbance was measured at 436 nm. […]. A total of 100 μL of distilled water was used in the blank tube instead of serum, and the standard used in the standard curve was diamine oxidase. The absorbance value of the experimental samples was substituted into the regression equation of the standard curve to calculate the content of DAO in the serum samples.

For test [6], the system named is T. gondii. Put plainly: Giemsa staining: cell infection rate and intracellular tachyzoites in IEC-6 cells. Type of test: cell-based, Toxoplasma gondii. To be noted: IEC-6 cells infected 3 h, drug 12 h at the IC50 value of the cells; for cell infection rate: Toxo group 49.2%; for number of intracellular tachyzoites: Toxo group 254. The method, then:
as §2

The next test relates to IEC-6 cells. The test is described as follows: MTT cytotoxicity assay in IEC-6 cells. In kind it is cell-based. The settings on record: MTT, concentration required to reduce IEC-6 cell growth by 50%, 24 h treatment, read-out: IC50 in IEC-6 Cells. The method, then: as §2
Test [7] concerns T. gondii. The test is described as follows: In vivo anti-T. gondii activity, peritoneal tachyzoite count by Trypan Blue. Set-up: species or system Toxoplasma gondii. The settings on record: 100 mg/kg oral once a day for 6 days; for Number of Tachyzoites: peritoneal cavity of KM female mice, i.p. 2 × 10^3 tachyzoites, Toxo 12.28 ± 0.39.
Text: as §3

In test [8] the test system is mice with T. gondii infection. Put plainly: Survival rate of mice with T. gondii infection. In kind it is in vivo. The settings on record: acute infection; Toxo group died from day seven. The method, then: All data were expressed as mean ± standard deviation (S.D.) in triplicate. Statistical analyses and graphs were performed using SPSS 16.0 software (SPSS Inc., Chicago, IL, USA) and GraphPad Prism 5.0 (GraphPad Software Inc., San Diego, CA, USA). The method of Kaplan and Meier was used to compare the survival rates of the studied groups. A value of p < 0.05 was considered statistically significant.

For orientation: IC50 means the concentration at which inhibition is half-maximal.

“Also recorded” adds a separate entry of the source. Where two headings read alike, the source gives them in different places.

For the molecule `Cn1c(-c2ccccc2)c(C=O)c2ccccc21` [A9, 1-Methyl-2-phenylindole-3-carbaldehyde], in test [1], the “NO level of IEC-6 cells with T. gondii infection” value is on record as “lowest NO release levels; also recorded: significantly decreased the release of intracellular nitric oxide”. In addition, in test [2], the “food utilization efficiency of mice with T. gondii infection” value is “enhanced food utilization efficiency” and the “weight increment of mice with T. gondii infection” value was “did not affect this parameter, except for derivative A9”. The “Selective Index (SI)” value with T. gondii [3] (IC50 in IEC-6 cells/IC50 in T. gondii-infected IEC-6 cells) is 1.1. Besides, the IC50 with T. gondii [3] (Toxoplasma gondii) turned out to be 366 ± 8.8 µM. For the same molecule, in [4], the “intestinal barrier damage induced by T. gondii infection (histology, H&E)” value is recorded as “demonstrate potential in ameliorating intestinal barrier damage”. Besides, in test [5], the “MDA level in small intestine tissue” value is on record as “effective inhibition of the MDA increase” and the “NO level in small intestine tissue” value is reported as “mitigate the elevated levels”. Further, in the test with T. gondii [6], the cell infection rate was determined as 18.0% and the “number of intracellular tachyzoites” value was “more effective than Spy”. Besides, the IC50 in the test with IEC-6 cells (Rattus norvegicus) was 408.4 ± 3.5 µM. Moreover, the “Inhibition Rate” value in the test with T. gondii [7] (mice peritoneal T. gondii, (untreated group − treated group)/untreated group × 100%) is 28.1%. Moreover, the “Number of Tachyzoites” value with T. gondii [7] is reported as 8.83 ± 0.39 ×10^6.

With Spiramycin [Spy, reference compound], the IC50 with T. gondii [3] is 219 ± 6 µM. For the same molecule, in [4], the “intestinal barrier damage induced by T. gondii infection (histology, H&E)” value is recorded as “showed no abnormalities in the small intestinal tissues”. The “MDA level in small intestine tissue” value in test [5] is “effective inhibition of the MDA increase”. For the same molecule, in test [8], the “survival of mice with T. gondii infection” value is “extended the survival time”. Moreover, in the test on T. gondii [6], the cell infection rate is listed as 27.7% and the “number of intracellular tachyzoites” value is 173. Further, the half-inhibitory concentration (IC50) with IEC-6 cells came out at 246 ± 5.9 µM. Besides, the “Number of Tachyzoites” value in the test on T. gondii [7] was 9.22 ± 1.73 ×10^6.

(Values after publication PMC11547840, “The Intestinal Barrier Protective Effect of Indole Aldehyde Derivatives on Acute Toxoplasma gondii Infection” (Molecules, 2024).)
